Source: article PMC6895912 (Cancers, 2019)
Where “and” joins values, the source holds several entries; their conditions need not be identical. Equal entries are not always repeated. Where two headings read alike, the source gives them in different places.

Tests used:
CWR22Rv1 xenografts = test: Antitumor efficacy in castration-resistant CWR22Rv1 xenograft model; format: in vivo, male NOD SCID mice; conditions: 5 days/week, 16 days
Experimental: Following the in vitro studies and determination of the PK parameters, we then investigated the relative efficacy. Gal and the NGGAs in vivo using difficult-to-treat castration-resistant CWR22Rv1 xenografts. Given the enhanced IP and PO PK parameters of VNPP414 and VNPP433-3β over Gal, we decided to use lower doses of the new analogs compared to the previous Gal doses (200 mg/kg, IP/PO). Gal (200 mg/kg) served as positive control, while ENZ (25 mg/kg) administered PO was used as negative control. Male NOD SCID mice bearing CWR22Rv1 tumors were treated with vehicle, ENZ, Gal, VNPP414, and VNPP433-3β for 16 days as described in the Methods and Materials Section. […] In contrast, Gal and the NGGAs caused statistically significant tumor growth inhibition (TGI). […] It is notable that VNPP433-3β (at 7.5- and 15-fold lower molar doses) and VNPP414 (at 4-fold lower molar dose) are more efficacious than Gal. In general, no host toxicities were observed, as monitored by changes in animal body weight (Figure 7C).
Figure 7 Effects of Gal, NGGAs and ENZ in an in vivo castration-resistant prostate cancer model. (A) Mice bearing CWR22Rv1 xenografts (5 mice per group) were treated with vehicle, Gal (100 mg/kg/twice daily), VNPP414 (60 mg/kg, once daily), VNPP433-3β (15 or 30 mg/kg, once daily) and ENZ (25 mg.kg, once daily) 5 days per week for 16 days. Tumor volumes were measured twice a week and the tumors were collected. Tumor growth inhibition (TGI) values are indicated at the right of each growth curve, and the error bars are the SEM. Results are represented as means ± SEM. ^# p = ns (not significant vs. vehicle), ^$ p < 0.0272 vs. vehicle, * p < 0.0035 vs. vehicle, ** p < 0.0025 vs. vehicle and *** p < 0.0008 vs. vehicle. (B) Photographed tumors from each group. (C) Mean body weights of mice determined during the study. (D) Western blot analyses of tumor samples from each experimental group at day 16. […] It is left out because vehicle is a control, not a substance.
Male NOD SCID mice 5–6 weeks of age were obtained from University of Maryland School of Medicine Veterinary Resources (Baltimore, MD, USA. Mice were housed under complete aseptic conditions, fed autoclaved pellets and sterile water ad libitum. Following a week of acclimatization, approximately 5 × 10^6 CWR22Rv1 cells were inoculated one flank f mice. Tumor-bearing mice (tumor volume around ~100 mm^3) were randomized into 6 groups (5 mice in each group; compounds formulated in vehicle) and treated as follows: (i) vehicle control (40% β-cyclodextrin in saline, PO.), (ii) ENZ (25 mg/kg, PO, once daily), (iii) Gal (100mg/kg, PO, twice daily), (iv) VNPP414 (60 mg/kg, PO, once daily), (v) VNPP433-3β (15 mg/kg, PO, once daily), and (vi) VNPP433-3β (30 mg/kg, PO, once daily) for 5 days/week. Tumors were measured twice weekly with calipers and tumor volume was calculated by the formula: length × width^2 × 0.5 (mm^3). Animals were also weighed weekly and monitored for general health status and signs of possible toxicity due to treatments. Mice were sacrificed after the indicated periods of treatment and tumors excised. Tumors were divided and either flash frozen in liquid nitrogen or placed in 10% buffered formalin for western blot analysis.

Mnk1 = target: T1, Mnk1 (Homo sapiens, UniProt Q9BUB5); test: Protein level decrease by western blot, dose-response in CWR22Rv1 cells; format: cell-based; conditions: for times more effective (than Gal) in degrading Mnk1: from EC50 values
T1 construct: compound treatments (0–7.5 µM) of CWR22Rv1 cells for 72 h followed by western blot analysis of cells lysates; endogenous in cells; host or cells: CWR22Rv1
T1 sequence (Q9BUB5 whole entry): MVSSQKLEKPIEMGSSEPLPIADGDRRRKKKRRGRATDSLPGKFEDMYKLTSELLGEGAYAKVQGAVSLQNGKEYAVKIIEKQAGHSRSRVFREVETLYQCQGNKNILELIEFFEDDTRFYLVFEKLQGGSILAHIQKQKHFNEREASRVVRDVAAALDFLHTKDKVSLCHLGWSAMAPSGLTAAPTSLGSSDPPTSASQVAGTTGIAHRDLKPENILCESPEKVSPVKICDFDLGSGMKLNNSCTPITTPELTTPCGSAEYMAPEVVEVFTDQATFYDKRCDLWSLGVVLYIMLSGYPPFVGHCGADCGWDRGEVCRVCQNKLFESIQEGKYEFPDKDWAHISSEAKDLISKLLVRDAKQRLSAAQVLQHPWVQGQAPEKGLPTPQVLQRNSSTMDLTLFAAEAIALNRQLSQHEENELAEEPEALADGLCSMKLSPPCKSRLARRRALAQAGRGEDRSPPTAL
Excerpt: Figure 4 Impact of Gal and NGGAs on AR/AR-V7 and Mnk1/2-eIF4E signaling pathways. (A) Western blot showing the effects of Gal and VNPT55 (55) on Mnk1, Mnk2, and peIF4E. (B) Western blot showing the effects of VNPP414 (414) and VNPP433-3β (433)) on Mnk1, Mnk2, and peIF4E. (C) Western blot showing dose-dependent effect of VNPP433-3β (433) on Mnk2, BMI-1, and peIF4E in CWR-R1 cells. (D) Western blot showing dose-dependent effect of Gal on Mnk1, Mnk2, BMI-1, and Snail1 in drug-resistant CWR-R1(10E) cells. (E) Western blot showing dose-dependent effect of VNPP433-3β (433) on Mnk1, Mnk2, BMI-1, and Snail1 in drug-resistant CWR-R1(10E) cells. (F) EC50 values (for fAR, ARV-7 and Mnk1) for compounds determined from dose–response curves upon compound treatments (0–7.5 µM) of CWR22Rv1 cells for 72 h followed by western blot analysis of cells lysates. Note: the numbers in parentheses in Figure 4B are concentrations of the agents in µM.
We further determined the effects of lead NGGAs on f-AR, AR-V7 and Mnk1 protein levels in CWR22Rv1 cells. Following agent treatments (0–7.5 µM), the EC50 values were determined from dose–response curves. […] Of note is the finding that although there was no dramatic difference between the agents in terms of their effects on f-AR suppression, there were significant differences in their relative potencies against AR-V7 and Mnk1.
Cells were lysed with radioimmunoprecipitation assay (RIPA) buffer (Sigma, St. Louis, MO, USA), supplemented with 1X protease inhibitors (Roche, Indianapolis, IN, USA), phosphatase inhibitors (Thermo Scientific, Waltham, MA, USA), 1 mmol/L EDTA and 1 mmol/L PMSF (Sigma). Western blot analyses were performed as in Kwegyir-Afful et al., 2015 [2].

[1] = 0–7.5 µM, 72 h, western blot, read-out: Mnk1 EC50

Row | Structure (SMILES) | tumor growth inhibition (TGI) (CWR22Rv1 xenografts; 200 mg/kg (100 mg/kg PO twice daily), listed as Gal) | DC50 (Mnk1; [1]) [nM] | tumor growth inhibition (TGI) (CWR22Rv1 xenografts; 60 mg/kg PO once daily) [%] | times more effective (than Gal) in degrading Mnk1 (Mnk1) [times] | tumor growth inhibition (TGI) (CWR22Rv1 xenografts; 15 mg/kg PO once daily) [%] | tumor growth inhibition (TGI) (CWR22Rv1 xenografts; 30 mg/kg PO once daily) | DC50 (Mnk1; read-out: Mnk1 EC50, 0–7.5 µM, 72 h, western blot) [nM]
1 | C[C@]12CC[C@H](O)CC1=CC[C@@H]1[C@@H]2CC[C@]2(C)C(n3cnc4ccccc43)=CC[C@@H]12 [Galeterone] | 47% and 46.5% | 5290 ± 90 | – | – | – | – | –
2 | C[C@]12CC[C@H](OCc3ccncc3)CC1=CCC1C2CC[C@]2(C)C(n3cnc4ccccc43)=CCC12 (stereo partly drawn) [VNPP414] | – | 560 ± 70 | 62.8 | 9.4 | – | – | –
3 | C[C@]12CC[C@H](n3ccnc3)CC1=CCC1C2CC[C@]2(C)C(n3cnc4ccccc43)=CCC12 (stereo partly drawn) [VNPP433-3β] | – | – | – | 66.0 | 60.5 | 84% and 83.7% | 80
